In ChEMBL document CHEMBL5154675, “Design, Synthesis, and Biological Evaluation of 1-(Indolizin-3-yl)ethan-1-ones as CBP Bromodomain Inhibitors for the Treatment of Prostate Cancer” (J Med Chem, 2022):

Key:
CWR22R = test: Antiproliferative activity against human 22Rv1 cells assessed as cell growth inhibition by Celltiter-Glo assay; assay type: functional, cell-based
[1] = target: T1, Bromodomain-containing protein 2 (Homo sapiens, UniProt P25440); conditions: dose 200.0 µM, time 30.0 min
Target sequence in this assay (P25440 whole entry, looked up): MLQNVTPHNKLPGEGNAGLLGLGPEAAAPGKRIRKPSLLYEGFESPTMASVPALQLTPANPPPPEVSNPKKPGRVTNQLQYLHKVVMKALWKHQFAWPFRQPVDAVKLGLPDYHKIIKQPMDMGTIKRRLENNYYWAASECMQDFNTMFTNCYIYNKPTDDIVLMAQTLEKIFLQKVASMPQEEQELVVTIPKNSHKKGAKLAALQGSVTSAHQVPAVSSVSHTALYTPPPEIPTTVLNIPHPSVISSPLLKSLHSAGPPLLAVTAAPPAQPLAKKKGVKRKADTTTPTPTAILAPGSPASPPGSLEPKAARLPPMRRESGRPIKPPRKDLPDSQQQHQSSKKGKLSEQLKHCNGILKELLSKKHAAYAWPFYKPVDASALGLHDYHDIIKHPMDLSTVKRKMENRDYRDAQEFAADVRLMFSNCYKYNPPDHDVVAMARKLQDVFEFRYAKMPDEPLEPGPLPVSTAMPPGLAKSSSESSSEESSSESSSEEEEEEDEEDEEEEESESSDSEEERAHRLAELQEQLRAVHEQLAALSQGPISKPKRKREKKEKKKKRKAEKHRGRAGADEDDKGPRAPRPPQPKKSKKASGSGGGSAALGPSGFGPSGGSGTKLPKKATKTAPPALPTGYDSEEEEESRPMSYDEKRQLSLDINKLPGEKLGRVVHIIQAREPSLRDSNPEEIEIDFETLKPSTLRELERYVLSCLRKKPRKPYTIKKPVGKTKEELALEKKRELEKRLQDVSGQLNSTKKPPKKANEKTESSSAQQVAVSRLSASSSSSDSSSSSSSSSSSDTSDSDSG

[2] = target: T2, Bromodomain testis-specific protein (Homo sapiens, UniProt Q58F21); conditions: dose 200.0 µM, time 30.0 min
[3] = target: T3, Bromodomain-containing protein 3 (Homo sapiens, UniProt Q15059); conditions: dose 200.0 µM, time 30.0 min
T3 sequence (Q15059 2-726 limits assumed): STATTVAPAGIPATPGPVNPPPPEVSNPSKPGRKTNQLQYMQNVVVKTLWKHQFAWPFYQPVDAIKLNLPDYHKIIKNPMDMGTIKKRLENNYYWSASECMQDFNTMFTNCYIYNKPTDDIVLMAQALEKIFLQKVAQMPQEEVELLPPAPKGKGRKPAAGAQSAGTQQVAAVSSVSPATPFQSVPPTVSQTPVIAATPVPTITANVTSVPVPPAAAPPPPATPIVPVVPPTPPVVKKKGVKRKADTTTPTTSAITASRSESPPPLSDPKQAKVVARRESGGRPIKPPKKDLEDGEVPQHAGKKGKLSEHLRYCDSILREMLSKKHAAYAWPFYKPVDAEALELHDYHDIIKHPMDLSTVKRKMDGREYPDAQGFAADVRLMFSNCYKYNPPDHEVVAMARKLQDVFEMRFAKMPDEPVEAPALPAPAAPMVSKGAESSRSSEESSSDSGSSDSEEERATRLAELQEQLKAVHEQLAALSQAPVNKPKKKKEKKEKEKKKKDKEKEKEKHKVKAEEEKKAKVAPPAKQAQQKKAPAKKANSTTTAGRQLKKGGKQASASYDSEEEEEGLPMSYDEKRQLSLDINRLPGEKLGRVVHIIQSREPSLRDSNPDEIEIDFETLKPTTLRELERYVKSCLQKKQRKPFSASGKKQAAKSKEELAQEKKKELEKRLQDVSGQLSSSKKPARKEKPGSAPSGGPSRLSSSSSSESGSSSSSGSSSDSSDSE

CREB-binding protein [4] = target: T4, CREB-binding protein (Homo sapiens, UniProt Q92793); test: Inhibition of His6-tagged human CBP bromodomain (1081 to 1197 residues) expressed in Escherichia coli BL21 (DE3) incubated for 30 mins by HTRF assay
[5] = AUC (0 to infinity) in Sprague-Dawley rat at 5 mg/kg, iv administered as single dose measured up to 24 hrs; assay type: ADME, organism-based; design: time < 24 hrs, dose 5 mg/kg, route iv; conditions: Sprague-Dawley, in vivo
[6] = Clearance in Sprague-Dawley rat at 5 mg/kg, iv administered as single dose measured up to 24 hrs; assay type: ADME, organism-based; conditions: Sprague-Dawley, in vivo
[7] = Half life in Sprague-Dawley rat at 25 mg/kg, po measured up to 24 hrs; assay type: ADME, organism-based; conditions: in vivo
[8] = target: T5, Bromodomain-containing protein 4 (Homo sapiens, UniProt O60885); conditions: dose 200.0 µM, time 30.0 min
[9] = Half life in Sprague-Dawley rat at 5 mg/kg, iv administered as single dose measured up to 24 hrs; assay type: ADME, organism-based; conditions: Sprague-Dawley, in vivo
[10] = AUC (0 to infinity) in Sprague-Dawley rat at 25 mg/kg, po measured up to 24 hrs; assay type: ADME, organism-based; design: time < 24 hrs, dose 25 mg/kg, route po; conditions: in vivo
[11] = Oral bioavailability in Sprague-Dawley rat at 25 mg/kg measured up to 24 hrs; assay type: ADME, organism-based; conditions: in vivo
[12] = Cmax in Sprague-Dawley rat at 25 mg/kg, po measured up to 24 hrs; assay type: ADME, organism-based; design: dose 25 mg/kg, time < 24 hrs, route po; conditions: in vivo
[13] = target: PH-interacting protein (Homo sapiens) (UniProt Q8WWQ0); conditions: dose 200.0 µM, time 30.0 min
[14] = target: Chromatin remodeling regulator CECR2 (Homo sapiens) (UniProt Q9BXF3); conditions: dose 200.0 µM, time 30.0 min
[15] = target: T1, Bromodomain-containing protein 2; conditions: dose 200.0 µM, time 30.0 min; remark: listed apart in the source
Target sequence in this assay (P25440 whole entry, looked up): as the sequence (P25440 whole entry, looked up) above

[16] = target: T6, Bromodomain-containing protein 9 (Homo sapiens) (UniProt Q9H8M2); conditions: dose 200.0 µM, time 30.0 min
T6 sequence (whole entry): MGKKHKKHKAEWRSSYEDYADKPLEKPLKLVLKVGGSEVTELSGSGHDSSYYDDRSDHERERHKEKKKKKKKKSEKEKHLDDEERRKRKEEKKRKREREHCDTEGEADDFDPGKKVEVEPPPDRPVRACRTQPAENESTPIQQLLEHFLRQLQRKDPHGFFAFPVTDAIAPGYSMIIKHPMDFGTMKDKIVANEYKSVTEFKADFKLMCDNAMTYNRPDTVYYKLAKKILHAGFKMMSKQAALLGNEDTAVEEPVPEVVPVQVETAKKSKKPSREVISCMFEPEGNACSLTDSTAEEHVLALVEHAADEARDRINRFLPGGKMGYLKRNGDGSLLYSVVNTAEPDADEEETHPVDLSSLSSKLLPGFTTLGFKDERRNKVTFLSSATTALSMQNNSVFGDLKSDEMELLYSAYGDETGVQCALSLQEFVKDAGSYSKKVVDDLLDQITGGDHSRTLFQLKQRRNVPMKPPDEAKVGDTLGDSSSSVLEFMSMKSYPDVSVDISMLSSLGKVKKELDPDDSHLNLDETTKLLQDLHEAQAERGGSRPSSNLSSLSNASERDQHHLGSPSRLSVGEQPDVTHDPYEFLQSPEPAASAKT

[17] = target: T3, Bromodomain-containing protein 3; conditions: dose 200.0 µM, time 30.0 min; remark: listed apart in the source
[18] = target: Histone acetyltransferase p300 (Homo sapiens) (UniProt Q09472); conditions: dose 200.0 µM, time 30.0 min
[19] = target: Bromodomain adjacent to zinc finger domain protein 2B (Homo sapiens) (UniProt Q9UIF8); conditions: dose 200.0 µM, time 30.0 min
Sequence of Bromodomain adjacent to zinc finger domain protein 2B (Homo sapiens) (Q9UIF8 whole entry, the tested form may be a part): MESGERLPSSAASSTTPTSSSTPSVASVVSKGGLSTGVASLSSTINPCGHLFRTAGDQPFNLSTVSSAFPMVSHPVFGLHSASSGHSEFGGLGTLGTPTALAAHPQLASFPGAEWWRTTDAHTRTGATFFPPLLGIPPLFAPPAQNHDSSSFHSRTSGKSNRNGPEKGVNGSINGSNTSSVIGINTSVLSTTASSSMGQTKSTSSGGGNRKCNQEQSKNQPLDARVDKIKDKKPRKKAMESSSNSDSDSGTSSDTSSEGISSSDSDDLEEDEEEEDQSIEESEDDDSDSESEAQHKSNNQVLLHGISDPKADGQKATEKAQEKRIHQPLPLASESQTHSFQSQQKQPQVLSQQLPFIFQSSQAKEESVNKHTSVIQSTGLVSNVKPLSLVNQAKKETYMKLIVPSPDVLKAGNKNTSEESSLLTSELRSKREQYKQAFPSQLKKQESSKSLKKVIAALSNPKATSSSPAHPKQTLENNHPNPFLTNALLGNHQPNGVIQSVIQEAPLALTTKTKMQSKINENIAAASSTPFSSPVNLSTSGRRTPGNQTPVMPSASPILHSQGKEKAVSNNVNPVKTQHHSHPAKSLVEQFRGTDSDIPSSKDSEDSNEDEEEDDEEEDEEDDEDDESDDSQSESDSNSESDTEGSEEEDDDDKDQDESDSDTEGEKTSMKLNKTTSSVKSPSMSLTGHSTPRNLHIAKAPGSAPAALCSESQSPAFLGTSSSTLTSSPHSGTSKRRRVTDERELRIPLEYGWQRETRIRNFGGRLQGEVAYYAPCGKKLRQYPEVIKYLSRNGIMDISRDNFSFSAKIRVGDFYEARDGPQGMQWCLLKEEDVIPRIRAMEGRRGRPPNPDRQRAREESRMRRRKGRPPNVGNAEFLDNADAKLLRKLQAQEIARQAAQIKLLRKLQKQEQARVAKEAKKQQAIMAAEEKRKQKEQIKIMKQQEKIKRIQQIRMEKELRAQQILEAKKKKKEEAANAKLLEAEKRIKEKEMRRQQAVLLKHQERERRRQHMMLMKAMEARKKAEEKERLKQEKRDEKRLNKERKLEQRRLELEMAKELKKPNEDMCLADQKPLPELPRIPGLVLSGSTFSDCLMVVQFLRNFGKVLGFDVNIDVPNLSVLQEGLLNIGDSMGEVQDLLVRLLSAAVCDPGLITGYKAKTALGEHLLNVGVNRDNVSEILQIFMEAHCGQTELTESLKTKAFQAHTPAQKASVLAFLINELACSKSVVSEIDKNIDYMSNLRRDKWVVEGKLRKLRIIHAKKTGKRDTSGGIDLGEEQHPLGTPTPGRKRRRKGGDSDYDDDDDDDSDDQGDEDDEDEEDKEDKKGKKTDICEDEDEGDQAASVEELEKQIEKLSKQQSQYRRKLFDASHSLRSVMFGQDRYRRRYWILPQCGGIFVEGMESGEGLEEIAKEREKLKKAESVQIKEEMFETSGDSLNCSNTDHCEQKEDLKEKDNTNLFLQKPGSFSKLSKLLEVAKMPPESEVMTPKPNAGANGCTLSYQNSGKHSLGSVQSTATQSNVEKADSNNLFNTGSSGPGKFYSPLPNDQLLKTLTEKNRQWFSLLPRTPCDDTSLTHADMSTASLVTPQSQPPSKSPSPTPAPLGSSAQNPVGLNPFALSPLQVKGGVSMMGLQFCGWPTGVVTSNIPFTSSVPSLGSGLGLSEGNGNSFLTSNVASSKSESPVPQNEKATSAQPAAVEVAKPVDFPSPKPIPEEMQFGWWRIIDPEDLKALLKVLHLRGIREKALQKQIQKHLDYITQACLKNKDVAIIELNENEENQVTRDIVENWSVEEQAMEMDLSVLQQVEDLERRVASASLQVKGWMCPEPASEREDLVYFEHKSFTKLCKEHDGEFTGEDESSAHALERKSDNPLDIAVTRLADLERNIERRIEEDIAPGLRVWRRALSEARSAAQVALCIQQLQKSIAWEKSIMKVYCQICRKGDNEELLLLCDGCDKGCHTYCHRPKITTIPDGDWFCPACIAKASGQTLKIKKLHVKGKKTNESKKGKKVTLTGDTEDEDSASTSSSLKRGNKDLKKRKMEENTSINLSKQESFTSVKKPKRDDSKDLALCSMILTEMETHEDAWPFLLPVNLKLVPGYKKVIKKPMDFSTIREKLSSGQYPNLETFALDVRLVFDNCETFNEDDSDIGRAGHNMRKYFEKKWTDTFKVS

[20] = target: T2, Bromodomain testis-specific protein; conditions: dose 200.0 µM, time 30.0 min; remark: listed apart in the source
[21] = target: SWI/SNF-related matrix-associated actin-dependent regulator of chromatin subfamily A member 2 (Homo sapiens) (UniProt P51531); conditions: dose 200.0 µM, time 30.0 min
[22] = Cmax in Sprague-Dawley rat at 5 mg/kg, iv administered as single dose measured up to 24 hrs; assay type: ADME, organism-based; design: time < 24 hrs, dose 5 mg/kg, route iv; conditions: in vivo
LNCaP = test: Antiproliferative activity against human LNCaP cells assessed as cell growth inhibition by Celltiter-Glo assay; assay type: functional, cell-based
LNCaP C4-2B = test: Antiproliferative activity against human LNCaP C4-2B cells assessed as inhibition of cell growth by Celltiter-Glo assay; assay type: functional, cell-based
[23] = target: Histone acetyltransferase KAT2B (Homo sapiens) (UniProt Q92831); conditions: dose 200.0 µM, time 30.0 min
Sequence of Histone acetyltransferase KAT2B (Homo sapiens) (Q92831 whole entry, looked up): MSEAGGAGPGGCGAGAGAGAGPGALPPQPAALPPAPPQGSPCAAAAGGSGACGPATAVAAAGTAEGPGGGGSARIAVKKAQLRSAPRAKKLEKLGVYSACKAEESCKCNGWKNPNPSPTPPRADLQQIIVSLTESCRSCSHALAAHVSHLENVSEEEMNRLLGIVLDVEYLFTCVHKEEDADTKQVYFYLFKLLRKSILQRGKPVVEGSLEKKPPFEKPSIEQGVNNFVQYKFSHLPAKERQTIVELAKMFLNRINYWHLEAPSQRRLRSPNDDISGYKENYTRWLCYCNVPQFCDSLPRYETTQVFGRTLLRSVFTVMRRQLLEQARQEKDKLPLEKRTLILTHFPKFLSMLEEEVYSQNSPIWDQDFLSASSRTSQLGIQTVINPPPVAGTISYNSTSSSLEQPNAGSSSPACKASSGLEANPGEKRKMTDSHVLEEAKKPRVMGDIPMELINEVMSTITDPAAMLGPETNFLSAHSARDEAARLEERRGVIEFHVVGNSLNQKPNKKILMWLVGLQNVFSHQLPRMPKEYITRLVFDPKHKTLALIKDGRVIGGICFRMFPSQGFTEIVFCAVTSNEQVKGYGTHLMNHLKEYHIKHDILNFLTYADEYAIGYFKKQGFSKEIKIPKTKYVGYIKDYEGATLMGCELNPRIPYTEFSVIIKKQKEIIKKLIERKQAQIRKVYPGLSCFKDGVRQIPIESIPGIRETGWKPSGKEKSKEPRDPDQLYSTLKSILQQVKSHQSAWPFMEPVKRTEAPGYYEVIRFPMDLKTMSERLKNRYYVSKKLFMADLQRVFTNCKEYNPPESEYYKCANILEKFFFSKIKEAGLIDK

CREB-binding protein [24] = target: T4, CREB-binding protein; conditions: dose 200.0 µM, time 30.0 min
[25] = target: T5, Bromodomain-containing protein 4; conditions: dose 200.0 µM, time 30.0 min; remark: listed apart in the source
[26] = target: T7, Bromodomain-containing protein 9 (Homo sapiens, UniProt Q9H8M2); test: Binding affinity to His6-tagged human BRD9 bromodomain (14 to 134 residues) expressed in Escherichia coli BL21 (DE3) assessed as dissociation constant by ITC analysis
T7 sequence (Q9H8M2 whole entry): T6 sequence (whole entry)

[27] = target: T2, Bromodomain testis-specific protein; test: Binding affinity to His6-tagged human BRDT bromodomain-1 (21 to 137 residues) expressed in Escherichia coli BL21 (DE3) assessed as dissociation constant by ITC analysis
[28] = target: T1, Bromodomain-containing protein 2; test: Binding affinity to His6-tagged human BRD2 bromodomain-1 (77 to 194 residues) expressed in Escherichia coli BL21 (DE3) assessed as dissociation constant by ITC analysis
[29] = target: T5, Bromodomain-containing protein 4; test: Binding affinity to His6-tagged human BRD4 bromodomain-1 (44 to 168 residues) expressed in Escherichia coli BL21 (DE3) assessed as dissociation constant by ITC analysis

SMILES | IC50 (CWR22R) [nM] | ΔTm [1] [°C] | ΔTm [2] [°C] | ΔTm [3] [°C] | ΔTm [8] [°C] | ΔTm [13] [°C] | ΔTm [14] [°C] | ΔTm [15] [°C] | ΔTm [16] [°C] | ΔTm [17] [°C] | ΔTm [18] [°C] | ΔTm [19] [°C] | ΔTm [20] [°C] | ΔTm [21] [°C] | IC50 (LNCaP) [nM] | IC50 (LNCaP C4-2B) [nM] | ΔTm [23] [°C] | ΔTm (CREB-binding protein [24]) [°C] | ΔTm [25] [°C] | other results
CC(=O)c1cc(C(=O)Nc2cc(C(C)O)cc(-c3cnn(C4CC4)c3)c2F)c2cc(N)ccn12 (stereo unspecified) | 2930 | -0.8 | 0 | 0 | 0 | -0.3 | -0.2 | 1.3 | 5.3 | 0.5 | 14.5 | -0.2 | 1.5 | -0.3 | 440 | 2970 | -0.3 | 14 | -0.6 | IC50 (CREB-binding protein [4]): 1.48 nM; AUC(0-inf) [5]: 796 ng·h/mL; clearance [6]: 107 mL/min/kg; half-life [7]: 118 min; half-life [9]: 79.2 min; AUC(0-inf) [10]: 29.4 ng·h/mL; bioavailability [11]: 0.68%; Cmax [12]: 46.8 ng/mL; Cmax [22]: 2680 ng/mL
CO[C@H]1CC[C@H](n2c([C@@H]3CCCC(=O)N3c3ccc(F)c(F)c3)nc3cc(-c4c(C)noc4C)ccc32)CC1 [INOBRODIB] | 420 | 3.8 | 0.5 | 2 | 1.3 | 0 | 0 | 2.3 | 4.3 | 5.5 | 17.5 | -0.5 | 2.5 | 0 | 60 | 1650 | -0.5 | 17.5 | 6.3 | Kd [26]: 2610 nM; Kd [27]: 1120 nM; Kd [28]: 390 nM; Kd [29]: 360 nM
